We go through 38 compounds from ChEMBL document CHEMBL1165911, “Elaborate ligand-based pharmacophore exploration and QSAR analysis guide the synthesis of novel pyridinium-based potent beta-secretase inhibitory leads” (Bioorg Med Chem, 2010).

SMILES strings stand for the structures.

The target in assay [1] is T1, Beta-secretase 1 (Homo sapiens, UniProt P56817). In words: Inhibition of BACE1 at 50 uM after 2 hrs by FRET assay.
The target in another assay is T2, Renin (Homo sapiens) (UniProt P00797).
T2 sequence (whole entry): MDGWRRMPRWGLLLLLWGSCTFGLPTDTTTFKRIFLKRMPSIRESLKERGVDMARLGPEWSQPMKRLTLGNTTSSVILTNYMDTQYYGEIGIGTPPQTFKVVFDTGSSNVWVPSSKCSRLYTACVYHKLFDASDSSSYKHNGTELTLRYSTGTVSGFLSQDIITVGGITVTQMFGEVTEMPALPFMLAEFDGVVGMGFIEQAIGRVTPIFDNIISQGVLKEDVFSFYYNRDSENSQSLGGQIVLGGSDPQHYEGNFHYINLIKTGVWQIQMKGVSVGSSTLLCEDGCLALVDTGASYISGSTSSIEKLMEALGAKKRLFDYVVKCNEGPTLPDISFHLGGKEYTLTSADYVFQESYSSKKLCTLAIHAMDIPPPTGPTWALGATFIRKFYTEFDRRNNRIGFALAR
Nature of the assay: Inhibition of renin at 50 uM after 30 mins by fluorometric assay.

The target in assay [2] is T1, Beta-secretase 1.
Description: Inhibition of BACE1 after 2 hrs by FRET assay

T1 sequence (P56817 whole entry): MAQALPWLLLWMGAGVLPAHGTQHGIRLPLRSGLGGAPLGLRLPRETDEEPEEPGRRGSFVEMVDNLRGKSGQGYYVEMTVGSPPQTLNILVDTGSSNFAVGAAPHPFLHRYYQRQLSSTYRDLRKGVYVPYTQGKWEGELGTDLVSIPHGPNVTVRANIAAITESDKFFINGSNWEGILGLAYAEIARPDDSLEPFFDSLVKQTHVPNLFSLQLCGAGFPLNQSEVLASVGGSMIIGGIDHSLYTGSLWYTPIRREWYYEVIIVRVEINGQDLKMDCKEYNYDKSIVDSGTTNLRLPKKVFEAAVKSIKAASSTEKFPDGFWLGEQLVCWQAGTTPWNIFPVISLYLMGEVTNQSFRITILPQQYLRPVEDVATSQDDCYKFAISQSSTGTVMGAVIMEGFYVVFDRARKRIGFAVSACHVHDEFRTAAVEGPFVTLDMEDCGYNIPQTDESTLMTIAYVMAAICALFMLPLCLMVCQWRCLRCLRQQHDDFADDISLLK

`Cc1ccc(C(=O)Nc2cccc(NC(=O)C[n+]3cccc(C(=O)NCCc4ccccc4)c3)c2)cc1`: the figures for the inhibition against Beta-secretase 1 [1] and at Renin (Homo sapiens) were 100% and 22%, respectively. The IC50 on Beta-secretase 1 [2] is 2.2 µM.

On to `Cc1ccc(S(=O)(=O)Nc2cccc(NC(=O)C[n+]3cccc(C(N)=O)c3)c2)cc1`, for which, on Beta-secretase 1 [1], the inhibition worked out at 4%.

On to `O=C(C[n+]1ccccc1)Nc1cccc(NC(=O)c2ccccc2)c1`, for which the inhibition at Beta-secretase 1 [1] stood at 51%.

With `Cc1ccc(C(=O)Nc2cccc(NC(=O)C[n+]3cccc(C(N)=O)c3)c2)cc1`, the inhibition against Beta-secretase 1 [1] was found to be 24%.

With `O=C(C[n+]1cccc(C(=O)NCCc2ccccc2)c1)Nc1cccc(C(=O)Nc2ccc(Cl)cc2)c1`, the results for the inhibition at Beta-secretase 1 [1] and on Renin (Homo sapiens) were 78% and 26%, respectively. For the same compound, it took 12 µM to reach half-maximal inhibition on Beta-secretase 1 [2] (IC50).

Turning to `Cc1cccc(NC(=O)c2cccc(NC(=O)C[n+]3cccc(C(=O)NCCc4ccccc4)c3)c2)c1`, the inhibition at Beta-secretase 1 [1] is 58%.

As for `Cc1ccc(NC(=O)c2cccc(NC(=O)C[n+]3cccc(C(N)=O)c3)c2)cc1`, the inhibition on Beta-secretase 1 [1] amounted to 69%.

Consider `Cc1ccc(C(=O)Nc2cccc(NC(=O)C[n+]3ccccc3)c2)cc1`, for which the results for the inhibition against Beta-secretase 1 [1] and on Renin (Homo sapiens) were 68% and 0%, respectively. This compound registered an IC50 against Beta-secretase 1 [2] of 13 µM.

For `COc1ccc(NC(=O)c2cccc(NC(=O)C[n+]3cccc(C(N)=O)c3)c2)cc1`, the inhibition against Beta-secretase 1 [1] came to 100%; against Renin (Homo sapiens) it was 0%. This compound also had a half-maximal inhibitory concentration (IC50) against Beta-secretase 1 [2] of 1.9 µM.

Take `O=C(C[n+]1ccccc1)Nc1cccc(C(=O)Nc2ccc(Cl)cc2)c1`: the inhibition was 100% at Beta-secretase 1 [1] and 0% at Renin (Homo sapiens). In addition, it took 1 µM to reach half-maximal inhibition at Beta-secretase 1 [2] (IC50).

As for `COc1ccc(NC(=O)c2cccc(NC(=O)C[n+]3cccc(C(=O)NCCc4ccccc4)c3)c2)cc1`, at Beta-secretase 1 [1], the inhibition was 44%.

Take `Cc1ccc(NC(=O)c2cccc(NC(=O)C[n+]3cccc(C(=O)NCCc4ccccc4)c3)c2)cc1`: the inhibition against Beta-secretase 1 [1] worked out at 72%; on Renin (Homo sapiens) it was 26%. Inhibition against Beta-secretase 1 [2] was half-maximal at 4 µM (IC50).

The compound `Cc1cccc(NC(=O)c2cccc(NC(=O)C[n+]3cccc(C(N)=O)c3)c2)c1` yielded an inhibition against Beta-secretase 1 [1] of 44%.

For `O=C(C[n+]1cccc(C(=O)NCCc2ccccc2)c1)Nc1cccc(NC(=O)c2ccccc2)c1`, at Beta-secretase 1 [1], the inhibition was 55%.

`Cc1ccc(NC(=O)c2cccc(NC(=O)C[n+]3ccccc3)c2)cc1` registered an inhibition on Beta-secretase 1 [1] of 42%.

As for `Cc1cccc(NC(=O)c2cccc(NC(=O)C[n+]3ccccc3)c2)c1`, on Beta-secretase 1 [1], the inhibition turned out to be 61%.

As for `NC(=O)c1ccc[n+](CC(=O)Nc2cccc(NC(=O)c3ccccc3)c2)c1`, at Beta-secretase 1 [1], the inhibition came to 54%. Besides, on Beta-secretase 1 [2], the IC50 was 44.7 µM.

`COc1ccc(NS(=O)(=O)c2cccc(NC(=O)C[n+]3ccccc3)c2)cc1`: the inhibition against Beta-secretase 1 [1] was determined as 50%.

`COc1ccc(NS(=O)(=O)c2cccc(NC(=O)C[n+]3cccc(C(N)=O)c3)c2)cc1` registered an inhibition on Beta-secretase 1 [1] of 34%.

Regarding `Cc1ccc(S(=O)(=O)Nc2cccc(NC(=O)C[n+]3cccc(C(=O)NCCc4ccccc4)c3)c2)cc1`, the inhibition at Beta-secretase 1 [1] turned out to be 36%.

Take `Cc1c(CC(=O)N[C@H](CCCNC(N)=O)C(=O)O)c(=O)oc2cc(O)ccc12`: the midpoint of inhibition at Beta-secretase 1 [2], the IC50, lay at 500 µM.

Turning to `Clc1ccc(/C=N/Nc2nc(Nc3ccccc3)nc(Nc3ccccc3)n2)cc1Cl`, the IC50 against Beta-secretase 1 [2] was found to be 100 µM.

At Beta-secretase 1 [2], `COc1cc2[nH]c(=O)n(Cc3ccc(C(=O)NCc4ccc(C)cc4)cc3)c(=O)c2cc1OC` showed an IC50 of 100 µM.

On Beta-secretase 1 [2], `C[C@@H](NC(=O)c1cc(NS(C)(=O)=O)cc(C(=O)N[C@@H](Cc2ccccc2)[C@H](O)CNC2CC2)c1)c1ccc(F)cc1` had an IC50 of 63 µM.

At Beta-secretase 1 [2], `Oc1c(I)cc(I)cc1/C=N/Nc1nc(Nc2cccc3ccccc23)nc(N2CCOCC2)n1` displayed an IC50 of 100 µM. Against the preceding compound, the IC50 is about 1.6-fold higher.

`O=C(NCCc1ccc(Cl)cc1)c1ccc(Cn2c(=S)[nH]c3ccc(N4CCOCC4)cc3c2=O)cc1` registered an IC50 against Beta-secretase 1 [2] of 100 µM.

For the compound `CCNC[C@@H](O)[C@H](Cc1ccccc1)NC(=O)c1cc(C(=O)N[C@H](C)c2ccc(F)cc2)cc(N(C)S(C)(=O)=O)c1`, the IC50 at Beta-secretase 1 [2] worked out at 15 µM.

Regarding `CC(C)S(=O)(=O)N(C)c1cc(C(=O)N[C@@H](Cc2ccccc2)[C@H](O)CNC2CC2)cc(C(=O)N[C@H](C)c2ccccc2)c1`, on Beta-secretase 1 [2], 41 µM corresponded to half-maximal inhibition (IC50).

Consider `COc1cccc2cc(C(=O)Nc3cc(Br)ccc3N3CCN(C(=O)OC(C)(C)C)CC3)c(=O)oc12`, for which the IC50 against Beta-secretase 1 [2] came out at 1 µM.

In the case of `O=C(NCc1ccc(F)cc1)c1ccc(N2CC3CC(C2)c2cccc(=O)n2C3)c(NS(=O)(=O)c2ccc3c(c2)OCCO3)c1` (centres undefined), the IC50 against Beta-secretase 1 [2] came to 100 µM. Against the preceding compound, the IC50 is about 100-fold higher.

On to `NC(=O)c1ccc[n+](CC(=O)Nc2cccc(C(=O)Nc3ccc(Cl)cc3)c2)c1`, for which the inhibition against Beta-secretase 1 [1] came out at 64%. Further, inhibition on Beta-secretase 1 [2] was half-maximal at 30.2 µM (IC50).

`Cc1oc(-c2ccccc2)cc1C(=O)NCC(=O)NC(C(=O)O)C(C)C` (centres undefined) displayed an IC50 against Beta-secretase 1 [2] of 500 µM.

Turning to `Cc1ccc(CNC(=O)c2ccc(N3CC4CC(C3)c3cccc(=O)n3C4)c(NS(=O)(=O)c3ccc4c(c3)OCCO4)c2)cc1` (centres undefined), the IC50 against Beta-secretase 1 [2] was 100 µM.

With `O=C(O)c1cccc(-c2ccc(/C=N/Nc3nc(Nc4ccccc4)nc(N4CCCCC4)n3)o2)c1`, it took 100 µM to reach half-maximal inhibition at Beta-secretase 1 [2] (IC50).

On to `C=CN(C=C)C(=O)c1cc(OCC(=O)NCCCCCN)cc(C(=O)N[C@H](C)c2ccccc2)c1`, for which, on Beta-secretase 1 [2], the IC50 was 25 µM. Against the preceding compound, the IC50 is about 4-fold lower.

In the case of `NNC(=O)CN1C(CN2CCOCC2)=Nc2ccc(Br)cc2C1c1ccccc1` (centres undefined), the IC50 against Beta-secretase 1 [2] was determined as 100 µM.

On to `COc1ccc(NC(=O)c2cccc(NC(=O)C[n+]3ccccc3)c2)cc1`, for which the inhibition against Beta-secretase 1 [1] amounted to 100%; against Renin (Homo sapiens), 0%. On Beta-secretase 1 [2], this compound had an IC50 of 3.7 µM.

Turning to `CCN1CCCC1CNC(=O)c1ccc2c(=O)n(Cc3cccc(Br)c3)c(=S)[nH]c2c1` (centres undefined), the IC50 against Beta-secretase 1 [2] came out at 100 µM.

By inhibition is commonly meant the change of the read-out against control, counted positive when it falls. The IC50 is the point on the concentration scale where inhibition reaches its midpoint. The low end stands for greater potency, the high end for weaker potency.
